Measurements from patent US20220354911A1, “TREATMENT OF TUMORS BY A COMBINATION OF AN ONCOLYTIC ADENOVIRUS, A CDK4/6 INHIBITOR AND A FURTHER THERAPEUTICALLY ACTIVE AGENT” (KLINIKUM RECHTS DER ISAR DER TECHNISCHEN UNIVERSITÄT MÜNCHEN, priority 2019, published 2022).

Columns and labels:
[1] = test system: XVir-N-31; test: XVir-N-31 fiber DNA qPCR with BET inhibitors and BET degraders; type: cell-based, Mastadenovirus, Type C, Serotype 5; details: UMUC-3 (MOI 10) and RT112 (MOI 50), 24 hours post infection
Method: 3×10^4 UMUC-3 cells and 4×10^4 RT112 cells were seeded in 12 well plates in DMEM and RPMI medium. The following day the cells were pretreated with BETi and BETd. 48 hours post seeding the cells were infected with 10 MOI for UMUC-3 and 50 MOI for RT112 and treated with the indicated concentration of BETi and BETd. After each timepoint (4, 24 hour) the cells were washed once with PBS and 200 μl of SDS DNA Lysis Buffer was added. The cells were incubated with Proteinase K before undergoing a Phenol-Chloroform-Isoamylalcohol purification. The DNA was diluted in DNase free water and the concentration of the DNA was determined using a Nanodrop. For each sample a solution of 15 ng/μl was prepared and a RT-qPCR using 75 ng of DNA and a GoTaq Master mix. Specific Fiber forward and reverse primers were used and for the calculation of the Δ ct value specific Actin primers were used as well. For each sample 3 Fiber and 3 Actin values were measured. The calculation was done in excel and each 24 hours was calculated based on its 4 hours value (initial viral entry, before replication).

[2] = test system: SK-N-MC cells; test: Cell cycle distribution (propidium iodine) of SK-N-MC cells; type: cell-based; details: 48 hours post treatment, MK-1775 at 500 nM
Method: 48 hours post treatment cells were washed twice took place with PBS (containing RNase A, 100 U/ml). Cells were trypsinized and centrifuged at 1500 rpm, 4° C. for 5 min. Cells are fixed by adding slowly 1 ml of ice-cold 80% Ethanol drop by drop to the pellet and incubated overnight. Staining was performed by adding 1 ml of staining solution (Propidium Iodine, 50 μg/ml) to the cells and incubating 30-60 min at RT with gentle rocking. MK: MK-1775; LY: LY-2835219.

[3] = test system: dl703; test: E1A-independent viral DNA replication of dl703 (fiber qPCR); type: cell-based, Mastadenovirus, Type C, Serotype 5; details: UMUC cells, 1 μM CI-1040, 50 MOI dl703, 48 hours post infection
Method: To investigate the differences in replication of dl703 (Mantwill et al. 2013, Journal of Translational Medicine, 11, 216) under different treatment conditions, DNA-replication analysis was performed. 100,000 UMUC cells were seeded in 6-well plates and grown in DMEM medium containing 10% FCS in 5% CO2 conditions at 37° C. 24 hours post seeding cells were treated for 24 hours with 10 μM Lee (Ribociclib), 1 μM CI-1040, 10 μM Nutlin-3a and 10 μM Roscovertine and again after infection adding an appropriate amount of inhibitors to the medium. Infection with 50 MOI dl703 (Mastadenovirus, Type C, Serotype 5 with a 3.2 kb sized deletion in E1 region) took place 24 hours post treatment. After 4 and 48 hours post infection DNA were isolated and qPCR was performed using specific primers for the viral fiber gene. Fiber fwd. 5′-[…]-3′ (SEQ ID NO: 17); Fiber rev. 5′-[…]-3′ (SEQ ID NO: 18).

[4] = test system: UMUC3 cells; test: Cell cycle analysis (flow cytometry) of UMUC3 cells; type: cell-based, human; details: UMUC3, 48 hours; Roscovitine 10 μM, CI-1040 1 μM, Nutlin-3a 10 μM, LEE011 10 μM; 10 MOI dl703
Method: FIG. 10 is a bar diagram showing cell cycle distribution in UMUC3 cells, measured 48 hours post treatment, whereby the concentrations of the […] inhibitors was as follows: Roscovitine: 10 μM, CI-1040: 1 μM, Nutlin-3a: 10 μM, and LEE011: 10 μM.
For cell cycle analysis cells were seeded in 6 well plates (2.5×10E4 c/well). 8 hours before infection with dl703, cells were treated with indicated concentration of cell cycle inhibitors. After infection with 10 MOI dl703 cells were again treated for 48 hours. Untreated cells and dl703 infected cells only, served as control. 48h post infection cells were harvest by trypsinization and fixed with 80% ethanol while vortexing. To investigate the cell cycle status, fixed cells were centrifuged 5 min at RT and 300 g and ethanol was aspirated. Cells were resuspended and washed with 1% BSA-PBS (Bovine Serum Albumin) and again centrifuged. Cells were stained with EDU and cell cycle analysis were performed using the Click-iT™ Plus EdU Flow Cytometry Assay Kits, Catalog nos. C10632 from Thermo Fischer. In addition, after 3× times washing with 1% BSA/PBS cells were stained with PI (Propidium Iodine, 50 μg/ml). Measurement was directly performed after staining with a FACScalibur Flow Cytometry System. Data was analyzed with FlowJo software.

[5] = test system: Rb, phRB and E2F1; test: Western blot of UMUC cells treated with cell cycle inhibitors; type: cell-based, human; details: 24 hours post-treatment, LEE-011 at 10 μM, MI-1040 at 1 μM
Method: Western Blot analysis of UMUC cells treated with indicated concentrations of CI-1040, Roscovitine, Nutlin-3a and LEE011 (Ribociclib). 1×10^6 cells were seeded in 10 cm dishes. 24 hours post-treatment proteins were isolated using 1% SDS buffer, to achieve the disruption of the nuclear membrane. All samples were drawn up several times into a syringe to disrupt the DNA and subsequently centrifuged at 30000 rpm at 4° C. for 30 minutes. The supernatant was transferred to a new reaction tube and directly used for further steps or stored at −80° C. To separate the proteins a sodium dodecyl sulfate polyacrylamide gel electrophoresis was performed. By means of electrophoresis for approximately two hours at 100V at 4° C., 40 μg of total proteins were loaded and probed against specific indicated antibodies.

[6] = test system: T24shRB cells; test: Potency assay/SRB staining, XVir-N-31, Nutlin-3a and Palbociclib; type: cell-based, human; details: 30 μM Nutlin-3a, 500 nM Palbociclib, four dpi
Method: (§1) Cell killing using XVir-N-31 alone and in combination with small molecule inhibitors was analysed in 12-well plates. […] At 1 hpi, complete medium with Palbociclib was added to the cells pretreated with Palbociclib. To the control as well as to the Nutlin treated cell complete medium without inhibitors was added.
The same potency assay as subject to Example 27.2 was carried out using T24shRB cells. T24shRB cells are T24 cells without Rb expression. Such lacking Rb expression was generated by means of lentiviral transfection, wherein the lentivirus coded for shRNA directed to Rb. The lentivirus vector used was pLKO-RB1-shRNA19 (obtained from Addgene, Watertown, Mass. 02472, USA), the sequence of the shRNA was as follows […] (SEQ ID NO: 39). The procedure is also described by Michaud K et al. (Cancer Res. 2010 Apr. 15. 70(8):3228-38).

[7] = test system: T24 cells; test: as above; type: cell-based, human; details: T24, 30 μM Nutlin-3a, 500 nM Palbociclib, four dpi
Method: as §1
A potency assay using T24 cells was carried out for determining the cell killing effect of XVir-N-31 alone, XVir-N-31 with Nutlin-3a, XVir-N-31 with Palbociclib, and XVir-N-31 with both Nutlin-3a and Palbociclib.

[8] = test system: T24 cells; test: Potency assay (SRB), XVir-N-31, Palbociclib and PARP inhibitor; type: cell-based; details: Homo sapiens, T-24, read-out: IC-80 value
Method: 12,500 T24 cells were seeded per well in 12-well plates and grown over-night in RPMI Medium containing 10% FCS at 37° C. Inhibitor-treatment of cells occurred 24 h past cell seeding and again 1 hour after infection by adding indicated concentration to the medium. Infection of cells took place 24 h past inhibitor-treatment in 250 μl medium without serum. Fixation and SRB-staining took place at 4 days post infection. PD, Palbociclib; PARPi: BMN673.
For SRB staining, the medium was removed by aspiration. Cells were fixed with 1 ml (per well) 10% cold TCA at 4° C. for 1 hour. TCA was removed by aspiration and cell layers were washed 4× with tap water. Cells were stained with 1 ml (per well) 0.5% SRB (sulforhodamine B) in 1% acetic acid for 30 min. Unbound SRB was removed in five washing steps with 1 ml 1% acetic acid/well; after each washing step, acetic acid was removed by aspiration. Plates were air-dried for 2 hrs. To solubilize the SRB stained cells, 200 μl of 10 mM Tris base was added to each well. […] The 96 well plate was loaded into an Elisa-plate reader and absorption of the samples was measured at 560 nm. […]
In order to show the kinetics of a triple therapy of T24 cells using triple therapy comprising XVir-N-31, Palbociclib and a PARP inhibitor (BMN673 (Talazoparib)), a potency assay was carried out and the potency assessed at different points in time. […]

[9] = test system: UMUC-3; test: as above; type: cell-based; details: Homo sapiens; UMUC3 cells; read-out: IC-80 value
Method: Seeding of UMUC-3: 3000 cells were seeded per well in 12-well plates and grown over-night in DMEM Medium containing 10% FCS at 37° C. Inhibitor-treatment of cell occurred 24 h past seeding and again 1 hour after infection by adding indicated concentration to the medium. Infection of cells took place 24 h past inhibitor-treatment. Fixation and SRB-staining took place at 1-6 days post infection (dpi: days post infection). 160 nM PARPi correspond to the IC-80 value in UMUC3 cells.

[10] = test system: T24 and UMUC-3; test: FACS cell cycle analysis, Talazoparib and Palbociclib; type: cell-based, human; details: T24 and UMUC-3, 48 hours
Method: The influence of the applied small molecule inhibitors at their indicated concentrations on the cell cycle of bladder cancer cell lines T24 and UMUC-3 was analysed via flow cytometry analysis after DNA staining. 5×10^4 cells were seeded in 6-well plates and 24 hours later treated with appropriate inhibitors. Two days later, at approximately 80% confluency, cells were washed with PBS, trypsinized, washed again and fixated with icecold 80% ethanol. For cell cycle analysis, samples were incubated with the DNA-intercalating dye 7-aminoactinomycine D (7-AAD) and measured via FACS analysis. Evaluation of measured data was performed via the software FlowJo.

[11] = test system: T24; test: IC50 concentration of PD-0332991; type: cell-based; details: Homo sapiens, T-24
Method: (§2) The class of CDK4/6 inhibitors as subject to Example 5 requires expression of RB. Therefor, three RB positive and two RB negative bladder cancer derived cell lines were used and the cells treated with the combination therapy. Cell lines were pretreated for 24 hours with an IC50 concentration of PD-0332991 (T24: 500 nM, RT112: 2000 nM, 253J: 100 nM) and infected with XVir-N-31 (T24 MOI50, 253J MOI 25, RT112 MOI450). Values are the average of at least 2 independent experiments. Error bars show the standard error. Four dpi, cell viability was measured using SRB assays (a, c). (b, d) Lysates of cells were prepared 3 dpi and a titer test was performed on Hek293 cells. Viral titer is shown as fold change relative to control

[12] = test system: 253J; test: IC50 concentration of PD-0332991; type: cell-based; details: Homo sapiens
Method: as §2

[13] = test system: RT112; test: IC50 concentration of PD-0332991; type: cell-based; details: Homo sapiens, RT-112
Method: as §2

COc1nnc2ccc(N3CCC(c4ccc(OCCN5CCN(C)C(=O)[C@H]5C)cc4)CC3)nn12 [AZD5153]
replication of XVir-N-31 [1]: highest

CCN1CCN(Cc2ccc(Nc3ncc(F)c(-c4cc(F)c5nc(C)n(C(C)C)c5c4)n3)nc2)CC1 [Abemaciclib]
cell cycle [2]: no effect

O=C(NOCC1CC1)c1ccc(F)c(F)c1Nc1ccc(I)cc1Cl [CI-1040]
viral DNA replication of dl703 [3]: much lower compared to Ribociclib treated cells | cell cycle distribution [4]: clear G1-arrest | Rb, phRB and E2F1 expression [5]: induced inhibition

C=CCn1c(=O)c2cnc(Nc3ccc(N4CCN(C)CC4)cc3)nc2n1-c1cccc(C(C)(C)O)n1 [MK-1775]
cell cycle [2]: increase of cells in G2/M

COc1ccc(C2=N[C@@H](c3ccc(Cl)cc3)[C@@H](c3ccc(Cl)cc3)N2C(=O)N2CCNC(=O)C2)c(OC(C)C)c1 [Nutlin-3a]
killing of Rb-negative cells by XVir-N-31 [6]: not effective | cell cycle distribution [4]: only little or no effect on the cell cycle | cell killing by XVir-N-31 [7]: enhanced cell killing | Rb, phRB and E2F1 expression [5]: no pronounced effect

Cn1ncnc1[C@H]1c2n[nH]c(=O)c3cc(F)cc(c23)N[C@@H]1c1ccc(F)cc1 [PARPi]
IC80 [8]: 15 nM | IC80 [9]: 160 nM | G1 arrest on addition of Talazoparib [10]: not influenced

CC(=O)c1c(C)c2cnc(Nc3ccc(N4CCNCC4)cn3)nc2n(C2CCCC2)c1=O [Palbociclib]
IC50 [11]: 500 nM | IC50 [12]: 100 nM | IC50 [13]: 2000 nM

CC[C@H](CO)Nc1nc(NCc2ccccc2)c2ncn(C(C)C)c2n1 [Roscovitine]
cell cycle distribution [4]: slight increase of G2/m arrested cells | Rb, phRB and E2F1 expression [5]: no pronounced effect
